Test systems include NCI/ADR-RES; HL-60; 786-0; K562; OVCAR-8; RPMI-8226; UACC-62; SNB-75; UO-31; CAKI-1; SK-MEL-28; Hs-578T; SF-268; SK-MEL-5; EKVX; KM12; M19-MEL; SN12C; NCI-H226; HT-29.
What all share (test): growth of human tumour cells (NCI), 48 h

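Five compound concentrations were applied to cells in 96-well plates for 48 hours; endpoints were derived by simple linear interpolation of the resulting dose-response curve. Abbreviation: GI50, concentration required for 50% inhibition of growth.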 Calls of active or inactive are those of the source. No stated cut-off is given here; in the data, active = GI50 up to about 1.1 µM and inactive = higher.

The source of these data is ChEMBL document CHEMBL1201862, “PubChem BioAssay data set” (2004).

As to `COc1cccc2c1C(=O)c1c(O)c3c(c(O)c1C2=O)C[C@@](O)(C(C)=O)C[C@@H]3OC1CC(N(C)C)C(O)C(C)O1` (stereo not given in full), the GI50 in the test with NCI/ADR-RES is 0.0575 µM (active); in the test with HL-60 it was 0.00387 µM (active); in the test with 786-0 it was 0.0562 µM (active); with K562, 0.00318 µM (active); in the test on OVCAR-8, 0.00405 µM (active); with RPMI-8226 it was 0.0113 µM (active). Also, the GI50 with UACC-62 is 0.00427 µM (active); in the test with SNB-75, 0.00346 µM (active); in the test with UO-31, 0.00371 µM (active); in the test with CAKI-1, 0.00904 µM (active); in the test on SK-MEL-28 it was 0.00516 µM (active); in the test with Hs-578T, 0.000123 µM (active). In addition, the GI50 with SF-268 was 0.00436 µM (active); with SK-MEL-5, 0.00236 µM (active); in the test with EKVX, 0.00485 µM (active); with KM12, 0.00485 µM (active); in the test with M19-MEL it was 0.0213 µM (active); in the test on SN12C it was 0.00357 µM (active). The figures for the GI50 in the test with NCI-H226 and with HT-29 were 0.029 µM (active) and 0.00356 µM (active), respectively.

Consider `Nc1ccc2c(c1)CN1C(=O)c3ccccc3C1=N2` [DANIQUIDONE], for which the GI50 was 66.1 µM (inactive) in the test with NCI/ADR-RES; 8.3 µM (inactive) in the test with HL-60; 28.4 µM (inactive) with 786-0; 67.5 µM (inactive) in the test with K562; 22 µM (inactive) with OVCAR-8; 74.6 µM (inactive) in the test on RPMI-8226. For the same molecule, the GI50 is 32.6 µM (inactive) in the test with UACC-62; 30.2 µM (inactive) with SNB-75; 27.3 µM (inactive) in the test with UO-31; 41.4 µM (inactive) in the test with CAKI-1; > 119 µM (inactive) with SK-MEL-28; 21.3 µM (inactive) in the test with Hs-578T. Moreover, the GI50 was 29 µM (inactive) in the test on SF-268; 16.8 µM (inactive) in the test on SK-MEL-5; 51.3 µM (inactive) in the test on EKVX; 50.7 µM (inactive) in the test with KM12; > 116 µM (inactive) in the test with M19-MEL; 33.3 µM (inactive) with SN12C. Also, the GI50 with NCI-H226 was 45.9 µM (inactive); in the test with HT-29 it was 69.3 µM (inactive).
